According to patent publication US20240366770A1, “DEGRADATION OF BRUTON'S TYROSINE KINASE (BTK) BY CONJUGATION OF BTK INHIBITORS WITH E3 LIGASE LIGAND AND METHODS OF USE” (BeiGene Switzerland GmbH, priority 2021, published 2024):

How the values were obtained:
HEK-293 cells = assay: HEK-293 cytotoxicity detection (CellTiter-Glo); format: cell-based; conditions: Homo sapiens; HEK-293 cells, 72 h incubation, CellTiter-Glo luminescence, IC50 of cell proliferation inhibition; read-out: HEK293
Method in brief: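 HEK-293 cells exposed 72 h to an 8-point, 4-fold dilution series (top 500× stock 5 mM in DMSO; 0.2% DMSO final). Viability by CellTiter-Glo luminescence after 10 min at room temperature; IC50 from four-parameter Hill fit of percent inhibition.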

BTK = target: T1, BTK (Homo sapiens, UniProt Q06187); assay: BTK degradation in TMD-8 cells (HTRF assay); format: cell-based; conditions: 6 h treatment, IC50 (DC50) of BTK degradation
T1 construct: High control=Cell group with added DMSO and without compound, indicating microplate readings without BTK degradation; endogenous in cells; host or cells: TMD-8
T1 sequence (Q06187 whole entry): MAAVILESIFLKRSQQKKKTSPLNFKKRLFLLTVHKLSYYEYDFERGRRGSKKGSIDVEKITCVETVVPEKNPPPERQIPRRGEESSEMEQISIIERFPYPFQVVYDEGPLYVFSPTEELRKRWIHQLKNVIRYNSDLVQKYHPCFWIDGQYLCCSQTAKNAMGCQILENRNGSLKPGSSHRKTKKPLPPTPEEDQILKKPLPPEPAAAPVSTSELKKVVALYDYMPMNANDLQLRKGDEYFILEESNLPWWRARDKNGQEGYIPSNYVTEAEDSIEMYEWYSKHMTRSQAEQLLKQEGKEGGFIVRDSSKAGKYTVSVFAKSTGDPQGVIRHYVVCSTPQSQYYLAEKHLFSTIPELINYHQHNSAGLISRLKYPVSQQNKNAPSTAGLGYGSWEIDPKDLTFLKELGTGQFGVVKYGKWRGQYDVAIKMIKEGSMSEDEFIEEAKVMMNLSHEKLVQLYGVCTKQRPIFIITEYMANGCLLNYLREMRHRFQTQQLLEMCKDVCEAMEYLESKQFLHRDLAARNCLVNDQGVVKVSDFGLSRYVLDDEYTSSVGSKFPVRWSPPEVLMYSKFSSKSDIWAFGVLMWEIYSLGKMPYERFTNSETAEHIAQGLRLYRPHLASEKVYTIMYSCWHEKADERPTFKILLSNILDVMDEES
Method in brief: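 TMD-8 cells were exposed for 6 h to 8 compound doses (6-fold serial dilution, 0.2% DMSO). Lysed cells were incubated overnight at room temperature with HTRF antibodies and read at 665/620 nm. DC50 came from four-parameter fitting of % inhibition versus concentration.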

Row | SMILES | IC50 (HEK-293 cells) [nM] | DC50 (BTK) [nM]
1 | Cc1cc(-c2ncnc3[nH]c4cc(N5CCC6(CC5)CCN(C5CC(c7ccc(NC8CCC(=O)NC8=O)cc7)C5)C6)ccc4c23)ccc1[C@@H](C)NC(=O)c1nc(C(C)(C)C)no1 (stereo partly drawn) [Example 103, 3-(tert-butyl)-N-((1R)-1-(4-(7-(2-(3-(4-((2,6-dioxopiperidin-3-yl)amino)phenyl)cyclobutyl)-2,8-diazaspiro[4.5]decan-8-yl)-9H-pyrimido[4,5-b]indol-4-yl)-2-methylphenyl)ethyl)-1,2,4-oxadiazole-5-carboxamide] | 1060 | 3.05
2 | Cc1cc(-c2ncnc3[nH]c4cc(N5CCC6(CCN(CC7CCN(c8ccc(N9CCC(=O)NC9=O)cc8)CC7)CC6)CC5)ccc4c23)ccc1[C@@H](C)NC(=O)c1nc(C(C)(C)C)no1 [Example 114, (R)-3-(tert-butyl)-N-(1-(4-(7-(9-((1-(4-(2,4-dioxotetrahydropyrimidin-1(2H)-yl)phenyl)piperidin-4-yl)methyl)-3,9-diazaspiro[5.5]undecan-3-yl)-9H-pyrimido[4,5-b]indol-4-yl)-2-methylphenyl)ethyl)-1,2,4-oxadiazole-5-carboxamide] | 923 | 1.89
3 | Cc1cc(-c2ncnc3[nH]c4cc(N5CCN(CCc6ccc(N7CCC(=O)NC7=O)cn6)CC5)ccc4c23)ccc1[C@@H](C)NC(=O)c1nc(C(C)(C)C)no1 [Example 19, (R)-3-(tert-butyl)-N-(1-(4-(7-(4-(2-(5-(2,4-dioxotetrahydropyrimidin-1(2H)-yl)pyridin-2-yl)ethyl)piperazin-1-yl)-9H-pyrimido[4,5-b]indol-4-yl)-2-methylphenyl)ethyl)-1,2,4-oxadiazole-5-carboxamide] | 5650 | 0.564
4 | CC(C)(C)c1noc(C(=O)N[C@@H]2CCc3cc(-c4ncnc5[nH]c6cc(N7CCN(CC8CCN(c9ccc(N%10CCC(=O)NC%10=O)cc9)CC8)CC7)ccc6c45)ccc32)n1 [Example 37, (R)-3-(tert-butyl)-N-(5-(7-(4-((1-(4-(2,4-dioxotetrahydropyrimidin-1(2H)-yl)phenyl)piperidin-4-yl)methyl)piperazin-1-yl)-9H-pyrimido[4,5-b]indol-4-yl)-2,3-dihydro-1H-inden-1-yl)-1,2,4-oxadiazole-5-carboxamide] | > 10000 | 57.6
5 | Cc1cc(-c2ncnc3[nH]c4cc(N5CCN([C@H]6C[C@@H](c7ccc(N[C@H]8CCC(=O)NC8=O)cc7)C6)CC5)ccc4c23)ccc1[C@@H](C)NC(=O)c1nc(C2(C)CC2)no1 [Example 120, N—((R)-1-(4-(7-(4-((1R,3s)-3-(4-(((S)-2,6-dioxopiperidin-3-yl)amino)phenyl)cyclobutyl)piperazin-1-yl)-9H-pyrimido[4,5-b]indol-4-yl)-2-methylphenyl)ethyl)-3-(1-methylcyclopropyl)-1,2,4-oxadiazole-5-carboxamide] | > 10000 | 1.25
6 | Cc1cc(-c2ncnc3[nH]c4cc(-c5ccn(CC6CCN(c7ccc(N8CCC(=O)NC8=O)cc7)CC6)c5)ccc4c23)ccc1[C@@H](C)NC(=O)c1nc(C(C)(C)C)no1 [Example 11, (R)-3-(tert-butyl)-N-(1-(4-(7-(1-((1-(4-(2,4-dioxotetrahydropyrimidin-1(2H)-yl)phenyl)piperidin-4-yl)methyl)-1H-pyrrol-3-yl)-9H-pyrimido[4,5-b]indol-4-yl)-2-methylphenyl)ethyl)-1,2,4-oxadiazole-5-carboxamide] | > 10000 | 9.78
7 | Cc1cc(-c2ncnc3[nH]c4cc(N5CCN(CC6CCN(c7ccc(N8CCC(=O)NC8=O)cc7)CC6)CC5)ccc4c23)c(F)cc1[C@@H](C)NC(=O)c1nc(C(C)(C)C)no1 [Example 23, (R)-3-(tert-butyl)-N-(1-(4-(7-(4-((1-(4-(2,4-dioxotetrahydropyrimidin-1(2H)-yl)phenyl)piperidin-4-yl)methyl)piperazin-1-yl)-9H-pyrimido[4,5-b]indol-4-yl)-5-fluoro-2-methylphenyl)ethyl)-1,2,4-oxadiazole-5-carboxamide] | 2900 | 0.608
